Measurements as given in ChEMBL document CHEMBL1152934, “Quinazolindione derivatives as potent 5-HT3A receptor antagonists” (Bioorg Med Chem, 2009).

What follows are compounds tested against Voltage-dependent T-type calcium channel subunit alpha-1G (Homo sapiens, UniProt O43497) (assay: Antagonist activity against T-type calcium channel alpha1G).
Assay type: functional; call rule not given here

Sequence of Voltage-dependent T-type calcium channel subunit alpha-1G (O43497 whole entry): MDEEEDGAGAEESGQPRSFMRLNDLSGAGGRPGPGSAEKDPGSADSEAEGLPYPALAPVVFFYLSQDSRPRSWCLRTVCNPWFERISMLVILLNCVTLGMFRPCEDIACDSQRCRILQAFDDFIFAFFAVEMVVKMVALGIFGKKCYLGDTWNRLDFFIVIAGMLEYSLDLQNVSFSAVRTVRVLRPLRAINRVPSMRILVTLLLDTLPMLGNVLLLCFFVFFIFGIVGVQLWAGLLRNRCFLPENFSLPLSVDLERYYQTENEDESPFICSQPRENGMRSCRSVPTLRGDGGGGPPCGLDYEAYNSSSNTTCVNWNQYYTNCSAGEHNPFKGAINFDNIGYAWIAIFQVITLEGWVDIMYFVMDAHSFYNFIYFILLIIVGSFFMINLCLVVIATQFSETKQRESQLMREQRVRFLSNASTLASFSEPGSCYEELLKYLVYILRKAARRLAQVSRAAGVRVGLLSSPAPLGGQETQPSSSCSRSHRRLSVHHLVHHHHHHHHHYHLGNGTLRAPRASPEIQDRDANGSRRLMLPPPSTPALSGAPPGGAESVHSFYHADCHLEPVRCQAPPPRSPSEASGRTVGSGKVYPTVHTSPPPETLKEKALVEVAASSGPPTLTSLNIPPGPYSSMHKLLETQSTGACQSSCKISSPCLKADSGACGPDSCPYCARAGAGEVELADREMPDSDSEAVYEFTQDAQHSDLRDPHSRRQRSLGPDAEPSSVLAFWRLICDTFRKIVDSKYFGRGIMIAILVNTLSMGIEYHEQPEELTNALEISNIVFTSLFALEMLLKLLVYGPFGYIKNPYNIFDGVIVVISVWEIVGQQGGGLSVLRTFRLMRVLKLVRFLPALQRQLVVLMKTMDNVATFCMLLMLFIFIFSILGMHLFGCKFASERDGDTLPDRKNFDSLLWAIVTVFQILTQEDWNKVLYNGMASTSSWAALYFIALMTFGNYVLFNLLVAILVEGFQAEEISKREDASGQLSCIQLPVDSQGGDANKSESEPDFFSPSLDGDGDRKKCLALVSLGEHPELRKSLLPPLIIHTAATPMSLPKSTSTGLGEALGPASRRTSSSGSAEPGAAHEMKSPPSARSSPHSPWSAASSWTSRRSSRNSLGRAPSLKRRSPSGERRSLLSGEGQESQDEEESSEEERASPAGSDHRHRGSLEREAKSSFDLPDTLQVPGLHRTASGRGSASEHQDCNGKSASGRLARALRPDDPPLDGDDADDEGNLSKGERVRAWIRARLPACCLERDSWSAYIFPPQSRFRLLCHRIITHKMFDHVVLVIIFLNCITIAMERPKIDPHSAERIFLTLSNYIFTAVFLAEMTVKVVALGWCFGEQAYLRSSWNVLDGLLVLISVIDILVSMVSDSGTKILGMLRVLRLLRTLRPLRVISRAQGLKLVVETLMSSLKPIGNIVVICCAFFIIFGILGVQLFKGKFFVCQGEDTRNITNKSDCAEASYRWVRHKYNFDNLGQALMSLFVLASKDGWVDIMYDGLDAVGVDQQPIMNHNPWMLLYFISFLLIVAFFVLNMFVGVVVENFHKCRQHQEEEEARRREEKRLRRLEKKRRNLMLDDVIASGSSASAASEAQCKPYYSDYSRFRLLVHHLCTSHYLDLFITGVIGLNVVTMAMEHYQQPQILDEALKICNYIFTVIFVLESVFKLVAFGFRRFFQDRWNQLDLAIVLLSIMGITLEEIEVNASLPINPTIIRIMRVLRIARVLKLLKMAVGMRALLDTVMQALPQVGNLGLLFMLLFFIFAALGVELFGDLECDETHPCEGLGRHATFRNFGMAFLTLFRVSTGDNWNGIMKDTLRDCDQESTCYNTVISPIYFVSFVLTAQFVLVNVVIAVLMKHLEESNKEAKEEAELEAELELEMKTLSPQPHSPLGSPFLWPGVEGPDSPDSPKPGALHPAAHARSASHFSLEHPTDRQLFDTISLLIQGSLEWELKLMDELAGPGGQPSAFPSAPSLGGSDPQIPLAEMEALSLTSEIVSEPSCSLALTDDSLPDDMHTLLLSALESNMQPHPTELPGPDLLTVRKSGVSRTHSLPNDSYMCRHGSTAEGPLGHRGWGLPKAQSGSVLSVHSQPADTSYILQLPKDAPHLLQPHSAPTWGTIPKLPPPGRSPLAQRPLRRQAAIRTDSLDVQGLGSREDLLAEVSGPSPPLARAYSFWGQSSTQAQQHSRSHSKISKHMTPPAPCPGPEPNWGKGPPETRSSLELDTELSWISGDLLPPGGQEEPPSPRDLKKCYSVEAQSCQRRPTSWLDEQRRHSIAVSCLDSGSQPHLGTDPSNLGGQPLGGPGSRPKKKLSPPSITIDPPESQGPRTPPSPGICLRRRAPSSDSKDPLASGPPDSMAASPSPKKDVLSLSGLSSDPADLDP

Compound	IC50
O=C(NCCN1CCCCC1)c1ccc2c(=O)n(Cc3ccccc3Cl)c(=O)[nH]c2c1	Not Active
O=C(NCCN1CCOCC1)c1ccc2c(=O)n(Cc3ccc(F)cc3)c(=O)[nH]c2c1	Not Active
CC1CCCCN1CCCNC(=O)c1ccc2c(=O)n(Cc3ccc(Cl)cc3)c(=O)[nH]c2c1 (stereo not drawn)	Not Active
O=C(NCCCN1CCOCC1)c1ccc2c(=O)n(Cc3ccc(Cl)cc3)c(=O)[nH]c2c1	Not Active
CC1CCCCN1CCCNC(=O)c1ccc2c(=O)n(C3CCCCC3)c(=O)[nH]c2c1 (stereo not drawn)	Not Active
O=C(NCCN1CCOCC1)c1ccc2c(=O)n(Cc3ccc(Cl)cc3)c(=O)[nH]c2c1	Not Active
O=C(NCCN1CCOCC1)c1ccc2c(=O)n(-c3ccc(F)cc3)c(=O)[nH]c2c1	Not Active
CCC1CCCCN1CCCNC(=O)c1ccc2c(=O)n(Cc3ccc(Cl)cc3)c(=O)[nH]c2c1 (stereo not drawn)	Not Active

Continued, values first:

IC50	Compound
Not Active	COc1ccccc1Cn1c(=O)[nH]c2cc(C(=O)NCCN3CCCCC3)ccc2c1=O
Not Active	COc1ccc(Cn2c(=O)[nH]c3cc(C(=O)NCCN4CCCCC4)ccc3c2=O)cc1
Not Active	COc1cccc(Cn2c(=O)[nH]c3cc(C(=O)NCCN4CCCCC4)ccc3c2=O)c1
Not Active	CC1CCCCN1CCNC(=O)c1ccc2c(=O)n(Cc3ccc(Cl)cc3)c(=O)[nH]c2c1 (stereo not drawn)
Not Active	O=C(NCCN1CCCCC1)c1ccc2c(=O)n(-c3ccc(F)cc3)c(=O)[nH]c2c1
Not Active	COc1ccc(-n2c(=O)[nH]c3cc(C(=O)NCCN4CCCCC4)ccc3c2=O)cc1
Not Active	Cn1c(=O)[nH]c2cc(C(=O)NCCN3CCCCC3)ccc2c1=O
Not Active	O=C(NCCN1CCCCC1)c1ccc2c(=O)n(Cc3ccccc3F)c(=O)[nH]c2c1
Not Active	O=C(NCCN1CCCCC1)c1ccc2c(=O)n(C3CCCCC3)c(=O)[nH]c2c1
Not Active	CCCn1c(=O)[nH]c2cc(C(=O)NCCN3CCCCC3)ccc2c1=O
